Test results reported in publication PMC6704710, “Preclinical evaluation of 3D185, a novel potent inhibitor of FGFR1/2/3 and CSF-1R, in FGFR-dependent and macrophage-dominant cancer models” (Journal of Experimental & Clinical Cancer Research : CR, 2019).

Target: T1, GRK2(h) (Homo sapiens, UniProt P25098)
T1 construct: purchased Eurofins (KinaseProfiler)
T1 sequence (P25098 1-689): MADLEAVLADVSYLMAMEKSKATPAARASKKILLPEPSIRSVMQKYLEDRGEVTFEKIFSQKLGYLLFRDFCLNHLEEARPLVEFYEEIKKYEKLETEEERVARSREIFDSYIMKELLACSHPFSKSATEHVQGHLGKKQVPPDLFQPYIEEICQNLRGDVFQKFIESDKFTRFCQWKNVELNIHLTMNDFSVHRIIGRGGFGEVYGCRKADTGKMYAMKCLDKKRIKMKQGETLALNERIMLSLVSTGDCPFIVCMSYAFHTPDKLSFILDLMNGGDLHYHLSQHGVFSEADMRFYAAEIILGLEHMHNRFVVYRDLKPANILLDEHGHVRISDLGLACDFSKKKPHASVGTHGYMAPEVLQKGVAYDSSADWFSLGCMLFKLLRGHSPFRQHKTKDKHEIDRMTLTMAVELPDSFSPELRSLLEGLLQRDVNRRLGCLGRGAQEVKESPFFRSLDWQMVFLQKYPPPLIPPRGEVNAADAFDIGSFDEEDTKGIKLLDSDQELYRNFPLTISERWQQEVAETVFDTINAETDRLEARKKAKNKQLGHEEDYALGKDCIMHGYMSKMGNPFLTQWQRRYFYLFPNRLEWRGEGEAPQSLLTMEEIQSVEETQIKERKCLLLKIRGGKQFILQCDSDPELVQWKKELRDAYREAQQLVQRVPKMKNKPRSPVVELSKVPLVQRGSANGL
Experiment: Eurofins kinase panel
Assay type: biochemical
Conditions: read-out: Inhibition rate (%)

COc1cc(OC)c(Cl)c(-c2ccc3c(NC(=O)c4ccc(N5CCNC(C)(C)C5)cc4)n[nH]c3n2)c1Cl [3D185]
inhibition at 0.01 µM (10 nM): 5% | inhibition at 0.1 µM (100 nM): 1% | inhibition at 1 µM (1000 nM): -4%
